Tests used:
Type in all cases: in vivo
[1] = tested on: avoidance response to electrical shock in trained fasted rats; assay: Conditioned Avoidance Response (CAR); details: Rattus norvegicus, po
Description: Conditioned Avoidance Response (CAR) - measure of a
drug's tranquilizing activity as determined by its
attenuation of avoidance response to electrical shock
in trained fasted rats. cf: Albert, Pharmacologist, 4,

[2] = tested on: apomorphine-induced stereotypy in rats; assay: Inhibition of Apomorphine-Induced (APO) Stereotypy; details: Rattus norvegicus, po
Description: 2. Inhibition of Apomorphine-Induced (APO) Stereotypy -
an assessment of blockade of dopaminergic activity in
rats as measured by attenuation of the behavioral
syndrome caused by the dopamine agonist, apomorphine.
of: Janssen, et al., Arzneimittel. Forsch., 17, 841

[3] = Catalepsy (drug-induced catalepsy); details: rat, in vivo, po, rats; read-out: Catalepsy Induction ED50
Description: (§1) 3. Catalepsy - drug-induced catalepsy in rats is predic-
(§2) tive of potential extrapyramidal symptoms (EPS) in man.
(§3) of: Costall, et al., Psychopharmacologia, 34, 233-241

[4] = tested on: neuroleptic-induced catalepsy in the rat; assay: Catalepsy Reversal; details: po
Description: 4. Catalepsy Reversal - measure of a drug's ability to
reverse neuroleptic-induced catalepsy in the rat.

[5] = tested on: drug-induced catalepsy in rats; assay: Catalepsy (drug-induced catalepsy); details: p.o.
Description: as §1, §2, §3

Compound | ED50 [1] [mg/kg] | ED50 [2] [mg/kg] | ED50 [3] [mg/kg] | ED50 [4] [mg/kg] | Catalepsy Induction ED50 [5]
CC1(C)CC(=O)N(CCCCN2CCN(c3nccc4sccc34)CC2)C(=O)C1 [Example 24, 4,4-Dimethyl-1-[4-[4-(thieno[3,2-c]pyridin-4-yl)-1-piperazinyl]butyl]-2,6-piperidinedione] | 6 | 40 | > 24 | > 20 | –
O=C1COCC(=O)N1CCCCN1CCN(c2nccc3occc23)CC1 [Example 25, 4-[4-[4-(4-Furo[3,2-c]pyridinyl)-1-piperazinyl]butyl]-3,5-morpholinedione] | 11 | 34 | > 46 | 2 | –
O=C1SC2(CCCC2)C(=O)N1CCCCN1CCN(c2nccc3sccc23)CC1 [Example 26] | 12 | 35 | – | > 20 | –
OC(CCCN1CCN(c2nccc3sccc23)CC1)c1ccc(F)cc1 (centres unmarked) [Example 27] | 10 | 9 | > 40 | > 20 | –
O=C1SC2(CCCC2)C(=O)N1CCCCN1CCN(c2nccc3sc(Br)cc23)CC1 [Example 28] | > 100 | > 100 | – | 16 | –
CC1(C)CC(=O)N(CCCCN2CCN(c3nccc4sc(Br)cc34)CC2)C(=O)C1 [Example 29] | 65 | – | – | > 20 | –
Cc1cc2c(N3CCN(CCCCN4C(=O)SC5(CCCC5)C4=O)CC3)nccc2s1 [Example 30] | 35 | – | > 142 | > 20 | –
O=C1CSCC(=O)N1CCCCN1CCN(c2nccc3sccc23)CC1 [Example 31] | 32 | – | > 128 | > 20 | –
O=C1SC2(CCCC2)C(=O)N1CCCCN1CCN(c2nccc3ccsc23)CC1 [Example 36] | 43 | 47 | – | > 20 | –
O=C1SC2(CCCC2)C(=O)N1CCCCN1CCN(c2nccc3occc23)CC1 [Example 37] | 9 | 18 | 23 | > 20 | –
CC1(C)CC(=O)N(CCCCN2CCN(c3nccc4occc34)CC2)C(=O)C1 [Example 38] | 4 | 7 | 13 | > 20 | –
OC(CCCN1CCN(c2nccc3occc23)CC1)c1ccc(F)cc1 (centres unmarked) [Example 39] | 3 | 5 | 11 | > 20 | –
Cc1cc2c(N3CCN(CCCCN4C(=O)SC5(CCCC5)C4=O)CC3)nccc2o1 [Example 40] | 28 | 41 | – | – | –
Cc1cc2c(N3CCN(CCCCN4C(=O)CC(C)(C)CC4=O)CC3)nccc2o1 [Example 41] | 14 | 22 | 40 | > 20 | –
O=C1CSCC(=O)N1CCCCN1CCN(c2nccc3occc23)CC1 [Example 42] | 36 | 63 | – | > 20 | –
Cc1cc2c(N3CCN(CCCC(O)c4ccc(F)cc4)CC3)nccc2o1 (centres unmarked) [Example 43] | 23 | – | – | > 20 | –
Cn1ccc2c(N3CCN(CCCCN4C(=O)SC5(CCCC5)C4=O)CC3)nccc21 [Example 47] | 60 | 61 | – | > 20 | –
Cn1ccc2c(N3CCN(CCCCN4C(=O)COCC4=O)CC3)nccc21 [Example 48] | > 100 | > 100 | – | > 20 | –
Cn1ccc2c(N3CCN(CCCCN4C(=O)CC(C)(C)CC4=O)CC3)nccc21 [Example 49] | 67 | > 100 | – | > 20 | –
O=C1CCCC(=O)N1CCCCN1CCN(c2nccc3sccc23)CC1 [Example 58] | 5 | 56 | – | > 20 | Inactive at 4 ×

Reference: patent publication US4677104A, “Antipsychotic fused-ring pyridinylpiperazine derivatives” (Bristol-Myers Company, priority 1986, dated 1987)
